Source: publication PMC7356968, “Key-Protease Inhibition Regimens Promote Tumor Targeting of Neurotensin Radioligands” (Pharmaceutics, 2020)

System: WiDr cells expressing the human NTS1R
Assay: Cell uptake / internalization assay in WiDr cells
Type: cell-based
Details: confluent WiDr cells, 1 h, 37 °C, 250 fmol peptide, non-specific (1 μM NT) subtracted, average ± sd of 3 experiments in triplicate; for internalized fraction vs total added activity: acid wash then lysis
Procedure: Human colorectal adenocarcinoma WiDr cells (LGC Promochem, Teddington, UK) expressing the human NTS1R [52] were cultured in McCoy’s GLUTAMAX-I (Gibco BRL, Life Technologies, Grand Island, NY, USA) supplemented by 10% (v/v) fetal bovine serum (FBS), 100 U/mL penicillin and 100 μg/mL streptomycin (all from Biochrom KG Seromed, Berlin, Germany). Cells were kept in a controlled humidified atmosphere containing 5% CO2 at 37 °C. Passages were performed every 4–5 days using a trypsin/EDTA (0.05%/0.02% w/v) solution. The overall cell association–internalization of ^99mTc-DT1, ^99mTc-DT5 and ^99mTc-DT6 was assessed in confluent WiDr cells. Briefly, the cells were seeded in six-well plates (~1 × 10^6 cells per well) 24 h before the experiment. Each of ^99mTc-DT1, ^99mTc-DT5 and ^99mTc-DT6 (approximately 150,000 cpm, 250 fmol total peptide in 150 μL of 0.5% BSA/PBS) was added alone (total) or in the presence of 1 μM NT (non-specific). Cells were incubated at 37 °C for 1 h and incubation was interrupted by placing the plates on ice, removing the supernatants and rapid rinsing with ice-cold 0.5% BSA/PBS. Cells were then treated 2 × 5 min with acid wash buffer (2 × 0.6 mL, 50 mM glycine buffer, pH 2.8, 0.1 M NaCl) at room temperature and supernatants were collected (membrane-bound fraction). After rinsing with 1 mL chilled 0.5% BSA/PBS, cells were lyzed by treatment with 1 N NaOH (2 × 0.6 mL) and lysates were collected (internalized fraction). Sample radioactivity was measured in the γ-counter (an automated well-type gamma counter with a NaI(Tl) 3′′ crystal, Canberra Packard Auto-Gamma 5000 series instrument) and total cell-associated (internalized + membrane bound) radioactivity was determined vs. total added activity. Results represent the average values ± sd of 3 experiments in triplicate.

Row | Substance | internalized fraction vs total added activity [%] | NTS1R-specific cell uptake (internalized + membrane bound) vs total added activity [%]
1 | N4-Gly-Arg-Arg-Pro-Tyr-Ile-Leu-OH [^99mTc-DT1, ^99mTc-[N4-Gly^7]NT(7-13), ^99mTc-labeled acyclic tetraamine-coupled NT(7-13) analog DT1] | 6.9 ± 2.1 | 10.1 ± 2.3
2 | N4-βAla-Arg-Dab-Pro-Tyr-Ile-Leu-OH [^99mTc-DT5, ^99mTc-[N4-βAla^7,Dab^9]NT(7-13), ^99mTc-labeled acyclic tetraamine-coupled NT(7-13) analog DT5] | 3.2 ± 0.3 | 3.7 ± 0.3
3 | N4-βAla-Arg-Dab-Pro-Tyr-Tle-Leu-OH [^99mTc-DT6, ^99mTc-[N4-βAla^7,Dab^9,Tle^12]]NT(7-13), ^99mTc-labeled acyclic tetraamine-coupled NT(7-13) analog DT6] | 0.8 ± 0.4 | 1.0 ± 0.4
